Data from patent US20140011814A1, “DIAMINE AND MEGLUMINE SALT FORMS OF FATTY ACIDS” (THETIS PHARMACEUTICALS LLC, priority 2012, published 2014).

Assay: Rat oral pharmacokinetics (plasma analyzed for eicosapentaenoic acid)
Settings: analyte EPA in plasma, oral gavage 40 mg/kg as aqueous solution in 0.5% carboxymethyl cellulose, Sprague-Dawley rats, mean of 6 rats; for AUC (0-24): 0-24 h

For C1CNCCN1.CC/C=C\C/C=C\C/C=C\C/C=C\C/C=C\CCCC(=O)O.CC/C=C\C/C=C\C/C=C\C/C=C\C/C=C\CCCC(=O)O [Piperazine di-eicosapentaenoate, Bis[5Z,8Z,11Z,14Z,17Z)-icosa-5,8,11,14,17-pentaenoate]piperazine salt], the “AUC (0-24)” value was 134.85 µg·h/mL, the Cmax was 28220 ng/mL and the Tmax was 1.0 h.

In the case of CC/C=C\C/C=C\C/C=C\C/C=C\C/C=C\CCCC(=O)O.CC/C=C\C/C=C\C/C=C\C/C=C\C/C=C\CCCC(=O)O.NCCN [Ethylene diamine di-eicosapentaenoate, Ethane-1,2-diaminium di[5Z,8Z,11Z,14Z,17Z)-icosa-5,8,11,14,17-pentaenoate]], the “AUC (0-24)” value was 275.29 µg·h/mL, the Cmax was 18370 ng/mL and the Tmax was 2.0 h.
